Measurements as given in patent US11332440B2, “4-oxo-alkylated tetramic acid compound, and preparation method thereof” (priority 2017, dated 2022).

Each molecule was assayed on Drosophilae containing and expressing human Abeta42 gene (assay: Pavlov's olfactory-related instantaneous memory test in Drosophila). Settings: increasing dosage, compared with memantine hydrochloride; FIG. 3.
Type: in vivo
From the text: Drosophila has a classical learning and memory paradigm, known as Pavlov's olfactory-related instantaneous memory. During the training program, a group of about 100 drosophilae were exposed sequentially to two odors, i.e., 3-octanol and 4-methylcyclohexanol, each odor for 60 seconds, and to fresh air for 45 seconds therebetween. During exposure to the first odor, the drosophilae were electrocuted on their feet (1.5-second pulses at 3.5-second intervals, 60V), while no electrocution was exerted during exposure to the second odor. In order to detect “instantaneous memory” (also known as “learning”), drosophilae were transferred to the selection area in the T maze immediately after training and forced to choose between the two odors. The drosophilae in each T-maze arm were then captured, anesthetized, and counted. The behavior index was calculated from the distribution of drosophilae in the T maze. […] In each experiment, the age of the control group was matched with that of the experimental group.
Pharmacodynamic evaluation of the candidate compounds: Drosophilae containing and expressing human Abeta42 gene were selected as a diseased control, and drosophilae containing but not expressing human Abeta42 gene were selected as a healthy control. The day after emergence of the drosophilae, male drosophilae were selected and fed. […] The above memory test was performed on the drosophilae on the tenth day.

Row | Compound | dose-effect relationship to improve memory of drosophilae with Alzheimer's disease
1 | O=C1C=C(OCc2cccc3ccccc23)[C@H](Cc2ccccc2)N1 [Compound 51311] | eventually reaches or exceeds the level of the activity of the positive compound memantine hydrochloride
2 | CC(=O)Oc1ccc(COC2=CC(=O)N[C@H]2Cc2ccccc2)cc1 [Compound 51351] | eventually reaches or exceeds the level of the activity of the positive compound memantine hydrochloride
3 | O=C1C=C(OCc2ccccc2F)[C@H](Cc2ccccc2)N1 [Compound 51121] | eventually reaches or exceeds the level of the activity of the positive compound memantine hydrochloride
4 | O=C1C=C(OCc2cccs2)[C@H](Cc2ccccc2)N1 [Compound 51151] | eventually reaches or exceeds the level of the activity of the positive compound memantine hydrochloride
